Kinetic parameters data for one molecule are collected here from article PMC6994673, “Metabolism of multiple glycosaminoglycans by Bacteroides thetaiotaomicron is orchestrated by a versatile core genetic locus” (Nature Communications, 2020).

For the test, the target named is T1, BT3349-S1_27^4S-sulf (Bacteroides thetaiotaomicron, UniProt Q8A2F6).
T1 construct: gene BT_3349; pET28a, N- or C-terminal His6, E. coli; Talon and size exclusion; periplasmic, SpII signal peptide
T1 sequence (Q8A2F6 13-508): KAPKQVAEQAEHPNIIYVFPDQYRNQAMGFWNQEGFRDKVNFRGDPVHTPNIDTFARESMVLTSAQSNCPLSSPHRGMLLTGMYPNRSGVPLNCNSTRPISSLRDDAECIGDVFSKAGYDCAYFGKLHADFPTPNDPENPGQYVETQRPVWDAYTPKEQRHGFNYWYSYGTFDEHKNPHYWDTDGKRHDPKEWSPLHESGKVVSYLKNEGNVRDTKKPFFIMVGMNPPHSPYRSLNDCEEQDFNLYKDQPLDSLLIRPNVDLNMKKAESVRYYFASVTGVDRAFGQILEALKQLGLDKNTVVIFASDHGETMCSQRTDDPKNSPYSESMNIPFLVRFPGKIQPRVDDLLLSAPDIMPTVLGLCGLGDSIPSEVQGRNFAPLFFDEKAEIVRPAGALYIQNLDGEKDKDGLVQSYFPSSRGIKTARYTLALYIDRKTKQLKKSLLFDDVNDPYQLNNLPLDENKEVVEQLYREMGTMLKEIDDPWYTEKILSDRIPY
Description: continuous linked assay with GH88, loss of absorbance at […] nm. It is filed as biochemical. Conditions: 50 mM MES pH 6.0 or Bis-Tris propane pH 6.5, 150 mM NaCl, 37 °C; kinetic parameters only in supplement, kind not told.

As for `CC(=O)N[C@H]1C(O)O[C@H](CO)[C@H](OS(=O)(=O)O)[C@@H]1O[C@@H]1OC(C(=O)O)=C[C@H](O)[C@H]1O` (stereo partly shown) [Δ4,5UA-GalNAc4S], the kinetic parameters result is “monitored via a continuous linked assay using BT3334^GH88 and UA-GalNAc4S as the substrate”.
